{"source": "patent US7205002B2", "about": "“Method of making, and the use of cytotoxic agents containing elemental selenium” (MCW Research Foundation, Inc., priority 2002, dated 2007)", "key": {"[1]": {"system": "normal murine granulocyte/macrophage progenitors (mCFU-GM)", "test": "Surviving fraction after 45 min exposure, in vitro clonal assay", "format": "cell-based", "details": "10 μg/ml", "method": "(§1) Cytotoxic Se(0)-protein conjugates were generated by exposing alpha-medium supplemented with fetal bovine serum (10%) and selenomerocyanine photosensitizer MC54 (26 μM) to cool white fluorescent light (fluence rate: 27 W/m^2) for 60 min. Wild-type L1210 leukemia cells, melphalan-resistant mutant L1210/L-PAM1 cells, or normal murine granulocyte/macrophage progenitors (mCFU-GM) (10^6/ml) were suspended either in cytotoxic conjugates or in alpha-medium supplemented with 4-HC (10 μg/ml) and incubated for 45 min at 37° C. Treatment conditions were selected to achieve a similar recovery of normal murine hematopoietic progenitor cells (mCFU-GM). Cells were washed free of excess conjugates or drug, and surviving fractions were determined by in vitro clonal assay."}, "[2]": {"system": "Wild-type L1210 leukemia cells", "test": "Surviving fraction after 45 min exposure, in vitro clonal assay", "format": "cell-based, murine", "details": "10 μg/ml", "method": "as §1"}, "[3]": {"system": "melphalan-resistant mutant L1210/L-PAM1 cells", "test": "Surviving fraction after 45 min exposure, in vitro clonal assay", "format": "cell-based, murine", "details": "10 μg/ml", "method": "as §1"}, "[4]": {"system": "L1210 leukemia cells", "test": "Cytotoxic activity of conjugates formed by dye photoproducts and serum (lipo)proteins, in vitro clonal assay", "format": "cell-based, murine", "method": "The mixtures were exposed to white light (27 W/m^2) for 60 min as deescribed above. […] To assess cytotoxic activity, cytotoxic conjugates were made isotonic by the addition of an appropriate volume of double-concentrated alpha-medium and incubated with L1210 leukemia cells for 60 min at 37° C. The surviving fraction of in vitro clonogenic leukemia cells was determined by in vitro clonal assay as described in Sieber, F. et al., 1984, which is incorporated by reference in its entirety. […] The fluorescence yield of fluorescent photoproduct-albumin conjugates was determined with a Hitachi F4500 fluorescence spectrophotometer. All samples were serially diluted with buffer to rule out artifacts due to self-quenching. In vitro clonal assays of L1210 murine leukemia cells were used to assess cytotoxic activity."}, "[5]": {"system": "tumor cells", "test": "Interactions of conjugates with ionizing radiation and standard chemotherapeutic agents", "details": "30 min pretreatment, nontoxic 3 mg/ml", "excerpt": "Alternatively, 5 or 6 doses of conjugates were used in combination with one or two doses of a drug. Depending on the combination, the two agents were applied either sequentially or simultaneously. […] For each combination, two or more target cells were selected from the following panel of tumor cell lines: L1210 and HL-60/ADR leukemia cells, PC3 and DU145 prostate cancer cells, H69 lung cancer cells, Mm5MT, MDA-MB-23 1, MDA-MB-435 and C1271 breast cancer cells, and SK-ES-1 Ewing's sarcoma cells."}, "[6]": {"system": "DU145 prostate cancer cells", "test": "Cytotoxicity of conjugates alone or in combination", "format": "cell-based, human", "method": "The study was conducted with DU145 human prostate cancer cells. The protein source was fetal bovine serum, and the data points are means of 4 plates±SE."}, "[7]": {"system": "PC3 prostate cancer cells", "test": "Cytotoxicity of conjugates in combination", "format": "cell-based"}, "[8]": {"system": "MDA-MB-435 breast cancer cells", "test": "Cytotoxicity of conjugates in combination", "format": "cell-based, human", "details": "0.5 mM; 20 hours"}, "[9]": {"system": "caspase activity in L1210 leukemia cells", "test": "Caspase Detection Kit (FITC-VAD-FMK) with specific peptide inhibitors", "format": "cell-based, murine", "details": "inhibitor 0.1 mM, 37° C., 1 hour", "method": "Conjugates were derived from MC56 to avoid a spectral interference with the fluorescent caspase substrate. The protein source was fetal bovine serum. Caspase inhibitors were used as recommended by the manufacturer (R&D Systems). That is, each sample contained 10^6 cells, and the final concentration of inhibitors was 0.1 mM. Incubation was at 37° C. for 1 hour. […] In FIG. 12, the “Z-” prefix and the “-FMK” suffix are omitted because of space limitations.\nWe have used the Oncogene (San Diego, Calif.) Caspase Detection Kit to monitor caspase activity in L1210 leukemia cells after exposure to cytotoxic Se(0)-protein conjugates. The kit uses a fluorescent substrate (FITC-VAD-FMK; a conjugate of fluoresceinisothiocyanate with a fluoromethylketone-derivaticed short peptide) that detects a broad range of caspases. When FITC-VAD-FMK is used in conjunction with non-cytotoxic concentrations of specific peptide inhibitors (R&D Systems, Minneapolis, Minn.), the inhibition of the fluorescent signal is directly proportional to the contribution of the respective caspases to the overall signal. […] Caspases 2, 4 and 9 show moderate activation whereas caspases 1, 3, 6 and 8 show little or no activity. […]"}, "[10]": {"details": "in vivo; cited from earlier work"}, "[11]": {"system": "female B6D2F1 mice", "test": "Acute systemic toxicity, intraperitoneal injection", "format": "in vivo", "details": "MC54 26 μM with equimolar bovine serum albumin; 1-ml i.p. injection on 1 to 5 consecutive days", "method": "Acute Systemic Toxicity of Photoproduct-Protein Conjugates in Mice: In an initial acute toxicity study, groups of 5 female B6D2F1 mice were injected intraperitoneally with photoproduct-protein conjugates. The photoproduct-protein conjugates were generated by photobleaching the selenomerocyanine MC54 (26 μM) in the presence of an equimolar concentration of bovine serum albumin. Group 1 received one 1-ml intraperitoneal injection of this conjugate. Groups 2 through 5 received the same injection of conjugates on 2, 3, 4, or 5 consecutive days, respectively.\nThe second toxicity experiment used conjugates that had been prepared with a dye-to-protein ratio of 5:1. Since MC54 was added from stock solutions in ethanol, the mice of the second series were exposed to 5-fold higher doses of ethanol."}}, "note": "Like-named read-outs stand apart in the source and are kept apart here. * marks the point of attachment. Cbz = O=C(OCc1ccccc1)*; CH2F = FC*"}
{"compound": "O=P1(N(CCCl)CCCl)NC(OO)CCO1", "note": "(stereo not shown) [Dye 4-HC, 4-Hydroperoxycyclophosphamide]", "values": [{"measurement": "Surviving Fraction", "setting": "[1]", "value": "0.0088 ± 0.0025"}, {"measurement": "Surviving Fraction", "setting": "[2]", "value": "0.0460 ± 0.0043"}, {"measurement": "Surviving Fraction", "setting": "[3]", "value": "0.2636 ± 0.0074"}]}
{"compound": "CCO", "note": "[Ethanol]", "values": [{"measurement": "Cytotoxic Activity", "setting": "[4]; MC54-derived photoproducts with the given solvent/protein", "value": "no"}]}
{"compound": "CCCCN1C(=O)C(=C/C=C/C=C2\\Oc3ccccc3N2CCCS(=O)(=O)[O-])C(=O)N(CCCC)C1=S.[Na+]", "note": "[MC540]", "values": [{"measurement": "Cytotoxic Activity", "setting": "[4]", "value": "no"}]}
{"compound": "NCCCNCCSP(=O)(O)O", "note": "[amifostine]", "values": [{"measurement": "Effect of pretreatment on response to cytotoxic conjugates", "setting": "[5]", "value": "sensitized tumor cells to cytotoxic conjugates"}]}
{"compound": "CCCCS(=N)(=O)CCC(N)C(=O)O", "note": "(stereo not shown) [buthionine sulfoximine]", "values": [{"measurement": "Effect of pretreatment on response to conjugates", "setting": "[6]; 0.5 mM, 20 hours", "value": "improved the response"}, {"measurement": "Effect of pretreatment on response to conjugates", "setting": "[7]; 0.5 mM, 20 hours", "value": "little or no effect"}, {"measurement": "Effect of pretreatment on response to conjugates", "setting": "[8]", "value": "little or no effect"}]}
{"compound": "N.N.[Cl][Pt][Cl]", "note": "[cisplatin]", "values": [{"measurement": "Antitumor effect, sequential exposure with conjugates", "setting": "[6]; sequential exposure", "value": "additive"}, {"measurement": "Antitumor effect, sequential exposure with conjugates", "setting": "[7]; sequential exposure", "value": "additive"}]}
{"compound": "Bovine serum albumin: carrier protein for conjugates with MC54-derived photoproducts", "values": [{"measurement": "Cytotoxic Activity", "setting": "[4]", "value": "yes"}]}
{"compound": "Carboxymethylated bovine serum albumin: commercial product from Sigma Chemical Co.", "values": [{"measurement": "Cytotoxic Activity", "setting": "[4]", "value": "no"}]}
{"compound": "Cbz-Val-Ala-Asp-CH2F", "values": [{"measurement": "Inhibition of the fluorescent caspase signal", "setting": "[9]", "value": "reduced the fluorescence signal more than any of the specific inhibitors"}]}
{"compound": "Fetal bovine serum", "values": [{"measurement": "Cytotoxic Activity", "setting": "[4]", "value": "yes"}]}
{"compound": "albumin", "values": [{"measurement": "Cytotoxicity of conjugates by carrier (lipo)protein", "setting": "[4]", "value": "more cytotoxic than conjugates formed by HDL"}, {"measurement": "half-life", "setting": "[10]", "value": "approximately 19 days"}]}
{"compound": "photoproduct-protein conjugates: generated by photobleaching the selenomerocyanine MC54 (26 μM) in the presence of an equimolar concentration of bovine serum albumin", "values": [{"measurement": "Signs of toxicity", "setting": "[11]", "value": "None of the animals showed signs of acute or chronic toxicity"}, {"measurement": "Survival", "setting": "[11]", "value": "All animals survived"}]}
